According to patent US8680253B2 (OliPass Corporation, priority 2008, dated 2014):
{Fam-L(1)L(1)} = N-terminal fluorescein (Fam) label attached through two L(1) linkers; {Lys-NH2} = C-terminal lysine amide

Key:
HeLa cells = assay: Cell penetration of fluorescein-tagged PNA oligomers, confocal fluorescence microscopy; format: cell-based, human; conditions: 40× objective
Protocol: (§1) In order to evaluate the cell penetration ability of PNA oligomers of this invention, cancer cells of human origin were treated with PNA oligomers covalently tagged with fluorescein. The applied method is provided in brief as follows.
(§2) To each cover glass (autoclaved) placed in each well of a 24-well plate, were seeded 20,000˜100,000 cells depending on the growth rate of the cell line used, and the cells were cultured at 37° C. and 5% CO2 for 16 to 24 h. Then the medium was replaced with 500 μl fresh Opti-MEM medium (with or without 1% FBS), to which was added an aliquot of aq stock solution of a PNA oligomer covalently tagged with fluorescein. After cells were cultured for a designated interval, the cells were washed with PBS, and fixed by incubating in 3.7% or 4% paraformaldehyde. The cells were thoroughly washed several times with PBS or PBS containing 0.1% Tween-20. Then the cover glass was mounted onto a slide glass using a drop of mounting solution and sealed with nail polish for confocal fluorescence microscopy. Fluorescence images were taken either on a Zeiss LSM 510 confocal microscope (Germany) at 63× objective or on a Nikon C1Si confocal microscope at 40× objective.

MCF-7 cells = assay: as above; format: cell-based, human; conditions: 2.5 μM, 0.5 and 1 h, without FBS, 63× objective
Protocol: as §1, §2

JAR cells = assay: as above; format: cell-based, human; conditions: 2 μM, 24 h, without FBS, 40× objective
Protocol: as §1, §2

A549 cells = assay: as above; format: cell-based, human; conditions: 2 μM, 24 h, without FBS, 40× objective
Protocol: as §1, §2

apoB-100 = conditions: a certain population of atherosclerosis patients; cited from earlier work

Fam-L(1)L(1)-TC(1O3)T-CC(1O3)C-AGC(1O3)-GTG-C(1O3)GC-C(1O3)AT-Lys-NH2 (TCTCCCAGCGTGCGCCAT; Fam-L(1)L(1) label, modified PNA, Lys-NH2, chemistry not fully specified) [Oligo 6, fluorescein-tagged modified PNA oligomer]
cell penetration, fluorescence intensity (HeLa cells; 1 μM, 6 or 24 h, with 1% FBS): fluorescence intensity is clear and becomes intense over 24 h
cell penetration, fluorescence intensity (MCF-7 cells): fluorescence intensity is clear and becomes intense over 1 h

Fam-L(1)L(1)-TCT-CCC-AGC-GTG-CGC-CAT-Lys-NH2 (TCTCCCAGCGTGCGCCAT; all peptide nucleic acid (PNA), 5' {Fam-L(1)L(1)}, 3' {Lys-NH2}) [Oligo 7, fluorescein-tagged 'unmodified' PNA oligomer, reference compound]
cell penetration, fluorescence intensity (MCF-7 cells): fluorescence intensity is faint

Fam-L(2)-TT-C(1O2)AT-A(5)GT-A(5)TA-AG(5)T-Lys-NH2 (TTCATAGTATAAGT; Fam-L(2) label, modified PNA, Lys-NH2, chemistry not fully specified) [Oligo 22, fluorescein-tagged modified PNA oligomer]
cell penetration, fluorescence intensity (JAR cells): good cell penetration
cell penetration, fluorescence intensity (HeLa cells; 2 μM, 24 h, without FBS): good cell penetration
cell penetration, fluorescence intensity (A549 cells): good cell penetration

Mipomersen
clinical activity (apoB-100): due clinical activity
